# Experimental data reported in patent US7718677B2, “Methods and compositions for reduction of side effects of therapeutic treatments” (priority 2007, dated 2010).
# System: 6-hydroxydopamine-lesioned rats
# Method: Animal model—6-Hydroxydopamine lesioning. We used the 6-hydroxydopamine lesioned rat model of nigrostriatal damage described by Cenci and colleagues (Cenci et al., 1998 Eur J Neurosci 10:2694-2706; Cenci et al., 2002 Nat Rev Neurosci 3:574-579). Adult male Sprague-Dawley rats were anesthetized with isofluorane, and then placed in a Kopf stereotaxic instrument. Burr holes were drilled through the skull and an intracranial injection of 6 μg 6-hydroxydopamine (2 μg/μl) stereotaxically injected at two separate sites into the right ascending dopamine fiber bundle, for a total of 12 μg 6-hydroxydopamine. The coordinates for the position of these two lesion sites were as follows relative to the Bregma and dural surface: (1) anteroposterior, −4.4; lateral, 1.2; ventral, 7.8; tooth bar at −2.4; (2) anteroposterior, −4.0; lateral, 0.75; ventral, 8.0; tooth bar at +3.4 (Cenci et al., 1998 Eur J Neurosci 10:2694-2706; Cenci et al., 2002 Nat Rev Neurosci 3:574-579). All procedures conformed to the NIH Guide for the Care and Use of Laboratory Animals and were approved by the Institutional Animal Care and Use Committee.
# Nicotine treatment regimen. The rats were first given a drinking solution containing 1% saccharin for 3-4 days (FIG. 8). Nicotine was then added at a concentration of 25 μg/ml, and increased to 50 μg/ml 3-4 days later. Animals were maintained on this dose for 3 weeks. L-dopa treatment was then initiated, as below, with the nicotine dosing continued.
# L-dopa treatment and behavioral testing for AIMs. Rats received single daily intraperitoneal injections of 8 mg/kg L-dopa methyl ester plus 15 mg/kg benserazide for 3 weeks (FIG. 8), as described (Cenci et al., 1998 Eur J Neurosci 10:2694-2706; Cenci et al., 2002 Nat Rev Neurosci 3:574-579). Abnormal involuntary movements (AIMs) after daily LDOPA injection were then quantified using the scale developed by Cenci and colleagues (Cenci et al., 1998 Eur J Neurosci 10:2694-2706; Cenci et al., 2002 Nat Rev Neurosci 3:574-579), as previously done in our laboratory (Cox et al., 2007, Exp. Neurol.). Rats were placed in a Rotomax test chamber. They were then scored on a scale from 0 to 4: 1=occasional; 2=frequent; 3=continuous but interrupted by sensory distraction; 4=continuous, severe, not interrupted by sensory distraction. The rating categories were as follows; (1) axial dystonia, consisting of twisting posturing of the head and neck; (2) orolingual dyskinesia, with stereotyped jaw movements and contralateral tongue protrusion and (3) forelimb movements, with dystonic movements of the contralateral forelimb. They were also assessed for locomotive dyskinesia, or increased locomotion with contralateral side bias; however, these scores were not included because the interpretation of this motor response is not clear (Papa et al., 1994 Brain Res 662; 69-74; Cenci et al., 1998 Eur J Neurosci 10:2694-2706).
# Locomotive dyskinesias are distinct from turning behavior described above. […] The maximum possible score in each session was thus 108 (maximum score per observation=12; number of observations per session=9). Rats were evaluated by two raters, one blinded to treatment.
# Data analyses. Statistical significance was determined using Student's t-tests or ANOVA followed by Bonferroni post hoc tests, as appropriate. Data are mean±SEM. A p level of 0.05 was considered significant.
smiles,measurement,setting,value
"CN1CCCC1c1cccnc1 (stereo not drawn) [Nicotine, S-3-(1-methyl-2-pyrrolidinyl)pyridine]",total AIMs,"25 μg/ml nicotine in the drinking water, two and four weeks after dose lowering, pooled",reduction in AIMs was sustained
same,total AIM scores,"50 μg/ml nicotine in drinking water, after 3 weeks of L-dopa 8 mg/kg ip, entire 3-hour period",reduction
same,oral dyskinesias,3 and 6-8 week time points,trend for a decrease
same,forelimb dyskinesias,"3 and 6-8 week time points, both doses of nicotine (50 and 25 μg/ml)",significant decreases
same,axial dyskinesias,6-8 week time point,significant decreases
same,persistence of the decline in AIMs with L-dopa treatment,25 and 50 μg/ml in the drinking water,at least 2 months
